Laboratory results taken from patent US20040038946A1, “Fullerene-based drugs targeted to bone” (priority 2003, published 2004).
Read-outs that look alike come from different tables or passages of the source.

Columns and labels:
[1] = cited from earlier work
[2] = Constant composition HAP crystal growth inhibition; conditions: for Rate of HAP crystal growth: 37 °C, uninhibited rate 9.09; for Reduction of HAP crystal growth rate: concentration of 3.1×10^-5 M
Method: Hydroxyapatite seed crystals were prepared from calcium nitrate and potassium dihydrogen phosphate, as detailed elsewhere. The specific surface area, 34.9 m2 g-1, was determined by BET nitrogen adsorption using a 30/70 N2/He mixture (Monosorb, Quantachrome Corp). HAP crystals in the form of a suspension in water (41.8 g L-1) were used for the crystal growth experiments.
Solutions were prepared using triply distilled carbon dioxide-free water and filtered before use through washed 0.22 μm filters (Millipore, Bedford, Mass.). Calcium concentrations were determined either complexometrically by EDTA titration with Eriochrome Black-T as indicator, or by atomic absorption (Perkin-Elmer, model 3100, Norwich, Conn.). Carbon dioxide-free potassium hydroxide solutions were prepared from washed Reagent grade pellets in a nitrogen atmosphere.
Crystal growth experiments were made in magnetically-stirred water-jacketed Pyrex vessels at 37.0±0.05° C. with ionic strength, I=0.15 mol L^−1, adjusted by the addition of sodium chloride. Supersaturated solutions were prepared by introducing calcium chloride solution, followed by potassium dihydrogen phosphate solution. The pH was adjusted to the required value by the slow addition of potassium hydroxide solutions. During the reactions, carbon dioxide was excluded by bubbling with presaturated nitrogen gas. After equilibration, 0.5 mL of the HAP slurry was introduced to initiate the reaction. Since the nucleation and growth of crystals consume solution lattice ions, the lowering of pH was used to trigger the addition of two titrant solutions that served to maintain constant the pH, the concentrations of calcium and phosphate and the ionic strength of the solution. A glass electrode (Orion, model 9101), standardized using two NBS buffer solutions at pH=7.386 and 4.028 at 37° C., was used to control titrant addition through a potentiostat. The total calcium concentration in all experiments was 6.00×10^−4 mol L^−1 with a calcium/phosphate molar ratio of 1.67, so as to achieve a supersaturation with respect to HAP of σ=5.55 (as defined in Eq. (1)), as computed from mass balance, proton dissociation, electroneutrality, and equilibrium expressions involving calcium and phosphate species.
In Eq. (1), v is the number of ions per formula unit of precipitating phase and IP and KSO are, respectively, the ionic and solubility products of HAP.
During the reactions, samples were withdrawn periodically, filtered (0.22 μm Millipore filter) and analyzed for calciwn by atomic absorption and for phosphate spectrophotometrically (Varian, Cary 210) as the phosphovanadomolybdate complex in order to verify the constancy of the solution composition. Solid phases were examined by X-ray powder diffraction, XRD, (Siemens Nicolet/Nic spectrometer, CuK radiation with Ni filter=1.540; 2 from 3o to 45o), by scanning electron microscopy (SEM at 20 kV; JEOL JSM-5300, Noran Instrumental Inc. Middleton, Wis.) and by diffuse reflectance infared fourier transform spectroscopy (FTR, Perkin Elmer 1760×Fr-IR spectrometer). Plots of mineralization were calculated from plots of titrant volumes as a function of time as described previously.
It is quite well established that strong inhibitors of crystal growth, such as the phosphonates, act by blocking, through adsorption, active growth sites at the crystal surfaces. Commonly, inhibition kinetics data are interpreted in terms of a simple Langmuir adsorption model. Assuming that the adsorbed fullerene molecules occupy a fraction, θ, of the active growth sites, thereby preventing them from participating in the growth, the growth rate R can be written in terms of the uninhibited rate Ro (Eq. (2)): […]

[3] = Concentration 1.0 × 10^−6 mol/L

CC(O)(P(=O)(O)O)P(=O)(O)O [CH3C(OH)[P(O)(OH)2]2, 1-hydroxyethylidene-1,1-diphosphonic acid]
Percent Reduction in Growth Rate [1, 3]: 69^ref 29%
Affinity Constant [1]: 13.3 × 10^5 ref 29 L mol^−1

4,4-bisphosphono-2-(polyhdroxyl-1,2-dihdro-1,2-methanofullerene[60]-61-carboxamido)butyric Acid [C60(OH)16AMBP]
Rate of HAP crystal growth ([2]; C60(OH)16AMBP 0.39 × 10^−6 mol L^−1): 7.67 10^−8 mol min^−1 m^−2
Rate of HAP crystal growth ([2]; C60(OH)16AMBP 0.77 × 10^−6 mol L^−1): 6.51 10^−8 mol min^−1 m^−2
Rate of HAP crystal growth ([2]; C60(OH)16AMBP 1.16 × 10^−6 mol L^−1): 4.55 10^−8 mol min^−1 m^−2
Rate of HAP crystal growth ([2]; C60(OH)16AMBP 1.54 × 10^−6 mol L^−1): 3.77 10^−8 mol min^−1 m^−2
Rate of HAP crystal growth ([2]; C60(OH)16AMBP 1.93 × 10^−6 mol L^−1): 2.83 10^−8 mol min^−1 m^−2
Rate of HAP crystal growth ([2]; C60(OH)16AMBP 2.32 × 10^−6 mol L^−1): 2.46 10^−8 mol min^−1 m^−2
Rate of HAP crystal growth ([2]; C60(OH)16AMBP 2.7 × 10^−6 mol L^−1): 1.92 10^−8 mol min^−1 m^−2
Rate of HAP crystal growth ([2]; C60(OH)16AMBP 3.09 × 10^−6 mol L^−1): 1.57 10^−8 mol min^−1 m^−2
Rate of HAP crystal growth ([2]; C60(OH)16AMBP 3.47 × 10^−6 mol L^−1): 1.23 10^−8 mol min^−1 m^−2
Percent Reduction in Growth Rate [2, 3]: 50%
Percent Reduction in Growth Rate ([2]; Concentration 3.5 × 10^−6 mol/L): 87%
Reduction of HAP crystal growth rate [2]: 87%

Fullerenol[60] [C60(OH)30]
Rate of HAP crystal growth ([2]; C60(OH)30 0.41 × 10^−6 mol L^−1): 8.31 10^−8 mol min^−1 m^−2
Rate of HAP crystal growth ([2]; C60(OH)30 0.81 × 10^−6 mol L^−1): 7.8 10^−8 mol min^−1 m^−2
Rate of HAP crystal growth ([2]; C60(OH)30 1.22 × 10^−6 mol L^−1): 6.55 10^−8 mol min^−1 m^−2
Rate of HAP crystal growth ([2]; C60(OH)30 1.63 × 10^−6 mol L^−1): 5.94 10^−8 mol min^−1 m^−2
Rate of HAP crystal growth ([2]; C60(OH)30 2.03 × 10^−6 mol L^−1): 5.7 10^−8 mol min^−1 m^−2
Rate of HAP crystal growth ([2]; C60(OH)30 2.44 × 10^−6 mol L^−1): 4.65 10^−8 mol min^−1 m^−2
Rate of HAP crystal growth ([2]; C60(OH)30 2.85 × 10^−6 mol L^−1): 4.07 10^−8 mol min^−1 m^−2
Rate of HAP crystal growth ([2]; C60(OH)30 3.25 × 10^−6 mol L^−1): 3.97 10^−8 mol min^−1 m^−2
Rate of HAP crystal growth ([2]; C60(OH)30 3.66 × 10^−6 mol L^−1): 3.85 10^−8 mol min^−1 m^−2
Rate of HAP crystal growth ([2]; C60(OH)30 4.07 × 10^−6 mol L^−1): 2.64 10^−8 mol min^−1 m^−2
Rate of HAP crystal growth ([2]; C60(OH)30 4.47 × 10^−6 mol L^−1): 2.49 10^−8 mol min^−1 m^−2
Percent Reduction in Growth Rate [2, 3]: 28%
Affinity Constant ([2]; Langmuir adsorption model, slope of Ro/R versus concentration): 414000 L/mol
Reduction of HAP crystal growth rate [2]: 58%
